Source: article PMC10444862, “Using macromolecular electron densities to improve the enrichment of active compounds in virtual screening” (Communications Chemistry, 2023)

Target: SARS-COV-2 3CLpro (having a P132H mutation, 3CLpro^P132H) (Severe acute respiratory syndrome coronavirus 2, UniProt P0DTD1, P3395H)
Assay type: biochemical

Row | SMILES | Inhibition Rate ([Cpd.]=40 uM)
1 | COc1ccc(/N=C(/Nc2ccc(OC)cc2)c2cccc3ccccc23)cc1 [E10, COc1ccc(/N=C(/Nc2ccc(OC)cc2)c2cccc3ccccc23)cc1] | < 0.5
2 | CN(CCCN(Cc1cccn1Cc1ccc(Cl)cc1)C(=O)Nc1ccccc1)c1ccccc1 [E11, CN(CCCN(Cc1cccn1Cc1ccc(Cl)cc1)C(=O)Nc1ccccc1)c1ccccc1] | < 0.5
3 | CCOc1ccc(N(Cc2nnc3n2CCCCC3)C(=O)Nc2ccc(C)cc2)cc1 [E12, CCOc1ccc(N(Cc2nnc3n2CCCCC3)C(=O)Nc2ccc(C)cc2)cc1] | < 0.5
4 | CC(=O)N1CCc2c(sc3c2c(=O)n(Cc2ccccc2)c(=O)n3Cc2cccc(C)c2)C1 [E13, CC(=O)N1CCc2c(sc3c2c(=O)n(Cc2ccccc2)c(=O)n3Cc2cccc(C)c2)C1] | < 0.5
5 | COc1cccc(-n2c(=O)c3c(C)c(C(=O)N(C)C)sc3n(Cc3cccc(F)c3)c2=O)c1 [E14, COc1cccc(-n2c(=O)c3c(C)c(C(=O)N(C)C)sc3n(Cc3cccc(F)c3)c2=O)c1] | < 0.5
6 | CCN(CC)C(=O)c1sc2c(c1C)c(=O)n(-c1ccccc1)c(=O)n2Cc1cccc(Cl)c1 [E15, CCN(CC)C(=O)c1sc2c(c1C)c(=O)n(-c1ccccc1)c(=O)n2Cc1cccc(Cl)c1] | < 0.5
7 | CC(=O)N1CCc2c(sc3c2c(=O)n(-c2ccccc2C)c(=O)n3Cc2cc(C)ccc2C)C1 [E16, CC(=O)N1CCc2c(sc3c2c(=O)n(-c2ccccc2C)c(=O)n3Cc2cc(C)ccc2C)C1] | < 0.5
8 | NC(=O)C[C@H]1CN(C(=O)COc2ncccn2)C[C@H]1OC(=O)c1ccccc1 [E17, NC(=O)C[C@H]1CN(C(=O)COc2ncccn2)C[C@H]1OC(=O)c1ccccc1] | < 0.5
9 | CC(=O)c1ccc(C(=O)N2CCc3c([nH]c4ccccc34)C2c2ccccc2F)s1 (stereo not drawn) [E18, CC(=O)c1ccc(C(=O)N2CCc3c([nH]c4ccccc34)C2c2ccccc2F)s1] | < 0.5
10 | COc1cccc(CN(CCc2c[nH]c3ccccc23)C(=O)c2ccnn2C)c1 [E19, COc1cccc(CN(CCc2c[nH]c3ccccc23)C(=O)c2ccnn2C)c1] | < 0.5
11 | COCc1ccc(C(=O)N(Cc2ccccc2)Cc2nc3ccccc3c(=O)[nH]2)cc1 [E20, COCc1ccc(C(=O)N(Cc2ccccc2)Cc2nc3ccccc3c(=O)[nH]2)cc1] | < 0.5
12 | O=C1[C@@H]2Cc3c([nH]c4ccccc34)C(c3cccc([N+](=O)[O-])c3)N2C(=O)CN1CC(O)c1ccccc1 (stereo partly drawn) [E21, O=C1[C@@H]2Cc3c([nH]c4ccccc34)C(c3cccc([N+](=O)[O-])c3)N2C(=O)CN1CC(O)c1ccccc1] | < 0.5
13 | O=C(c1cc(=O)c2ccccc2o1)N1CCc2c([nH]c3ccccc23)C1c1ccccc1F (stereo not drawn) [E22, O=C(c1cc(=O)c2ccccc2o1)N1CCc2c([nH]c3ccccc23)C1c1ccccc1F] | < 0.5
14 | O=C(CSc1nc(-c2ccccc2F)nc2c1cnn2-c1ccccc1)NC1CC1 [E23, O=C(CSc1nc(-c2ccccc2F)nc2c1cnn2-c1ccccc1)NC1CC1] | < 0.5
15 | COc1ccc(N2C(=O)C3C(Cc4c[nH]c5ccccc45)NC4(C(=O)Nc5ccccc54)C3C2=O)cc1 (stereo not drawn) [E24, COc1ccc(N2C(=O)C3C(Cc4c[nH]c5ccccc45)NC4(C(=O)Nc5ccccc54)C3C2=O)cc1] | < 0.5
